Columns and labels:
Format in all cases: cell-based
AQP3 = AQP3 expression reduced by ultraviolet rays in HaCaT cells (RT-PCR); settings: 15 mJ/cm^2 UV, 10 μM, 50 μM or 1000 μM peptide, 8 hours
Procedure: (§1) In this example, the aim was to confirm the effect of the peptide according to an embodiment on the recovery of skin barrier factors in damaged skin cells by evaluating changes in the levels of skin barrier factors in skin cells reduced by ultraviolet irradiation.
(§2) Specifically, HaCaT cells were seeded in a 6-well plate at a density of 5×10^5 cells/well and cultured for 24 hours. Next, the cells were washed once with serum-free DMEM media, and 10 μM, 50 μM or 1000 μM of the peptide consisting of the amino acid sequence of SEQ ID NO: 1 was dispensed into 1 mL of the serum-free media, and cultured in a CO2 incubator at 37° C. for 1 hour. Next, the above culture was transferred to an e-tube, mixed with 1 ml of PBS, and dispensed into a well plate. Next, using a UV irradiator (VILBER LOURMAT, Cat No.: 3102-BSU, France), 15 mJ/cm^2 ultraviolet rays were irradiated to the HaCaT cells. Next, the PBS in the well plate was removed, 900 μL of the culture medium in which the peptides were dispensed was added, and the plate was cultured in a CO2 incubator at 37° C. for 8 hours. Next, the culture was washed twice with PBS, and RNA was isolated from the culture using easy blue (iNtRON, Cat. No.: 17061, Korea). Next, using an RT kit (Enzynomics, Cat. NO.: RT200, Korea), the isolated RNA was reverse transcribed to synthesize the respective cDNA. […]

sirtuin-1 (SIRT-1) = assay: SIRT-1 expression by RT-PCR in HaCaT cells; settings: 10 μM, 50 μM or 1000 μM peptide, 24 hours
Procedure: In this example, the aim was to confirm the effect of the peptides according to an example on strengthening the skin barrier, by evaluating the expression levels of sirtuin-1 (SIRT-1) or aquaporin-3 (AQP3).
Specifically, HaCaT cells were seeded in a 6-well plate at a density of 3×10^5 cells/well and cultured for 24 hours. Next, the cells were washed once with serum-free DMEM media, and 10 μM, 50 μM or 1000 μM of the peptide consisting of the amino acid sequence of SEQ ID NO: 1 was dispensed into 1 mL of the serum-free media, and cultured in a CO2 incubator at 37° C. for 24 hours. Next, the culture was washed twice with PBS, and RNA was isolated from the culture using easy blue (iNtRON, Cat. No.: 17061, Korea). Next, using an RT kit (Enzynomics, Cat. NO.: RT200, Korea), the isolated RNA was reverse transcribed to synthesize the respective cDNA. Next, using the synthesized 1 ug cDNA, primers for SIRT-1 or AQP3, and a PCR kit (Enzynomics, Cat. No.: P581T, Korea), polymerase chain reaction (PCR) was performed. Meanwhile, in this example, an untreated group was used as the control group, and a group to which EGF was added was used as a positive control group, the nucleotide sequences of the primers used in this example are shown in Table 3 below.

[1] = tested on: reactive oxygen species in HaCaT cells; assay: Reactive oxygen species increased by ultraviolet rays in HaCaT cells (DCF-DA, flow cytometry)
Procedure: In this example, the aim was to confirm the effect of the peptide according to an embodiment on the antioxidant effect in damaged skin, by evaluating the change in the level of reactive oxygen species in skin cells increased by ultraviolet irradiation.
Specifically, NIH3T3 cells or HaCaT cells were seeded in a 6-well plate at a density of 5×10^5 cells/well and cultured for 24 hours. Next, the cells were washed once with serum-free DMEM media, and 10 μM, 50 μM or 1000 μM of the peptide consisting of the amino acid sequence of SEQ ID NO: 1 was dispensed into 1 mL of the serum-free media, and cultured in a CO2 incubator at 37° C. for 1 hour. Next, the above culture was transferred to an e-tube, mixed with 1 ml of PBS, and dispensed into a well plate. Next, using a UV irradiator (VILBER LOURMAT, Cat No.: 3102-BSU, France), 6 J/cm^2 ultraviolet rays were irradiated to NIH3T3 cells, and 15 mJ/cm^2 ultraviolet rays were irradiated to HaCaT cells. Next, the PBS in the well plate was removed, 900 μL of the culture medium in which the peptides were dispensed was added, and the plate was cultured in a CO2 incubator at 37° C. for 24 hours. The culture was then treated with DCFG-DA (2′,7′-dichlorofluorescin diacetate), wrapped in foil, and cultured in a CO2 incubator at 37° C. for 30 minutes. Next, the culture was washed twice with PBS and treated with 500 μL of 1× trypsin/EDTA to acquired cells, which were then centrifuged. After washing the centrifuged cells with PBS, FL1 fluorescence values were measured through flow cytometry (FACS, BD, USA). […]
In this example, the aim was to compare in more detail, the effect of peptides according to an embodiment on the antioxidant effect in damaged skin cells. To this end, the peptide consisting of the amino acid sequence of SEQ ID NO: 2, 3, or 4 having a sequence similar to the peptide according to an embodiment was set as a comparison group, and the level of reactive oxygen species in skin cells increased by ultraviolet irradiation of HaCaT cells was evaluated and compared in the same manner as in Example 4-1. […]

SIRT-1 = SIRT-1 expression reduced by ultraviolet rays in HaCaT cells (RT-PCR); settings: 15 mJ/cm^2 UV, 10 μM, 50 μM or 1000 μM peptide, 8 hours
Procedure: as §1, §2

With GPRGDP [SEQ ID NO: 1] the “expression of AQP3 reduced by ultraviolet irradiation” value (AQP3) was “increased or restored”, the “expression of skin barrier factor SIRT-1” value (sirtuin-1 (SIRT-1)) was “increases” and the “reactive oxygen species reducing effect compared to the comparison group” value ([1]; HaCaT cells, vs peptides of SEQ ID NO: 2, 3, or 4 (50 μM, 100 μM)) was “superior”. For the same substance, the “level of reactive oxygen species increased by ultraviolet irradiation” value ([1]; keratinocytes (HaCaT), 15 mJ/cm^2 UV, 10 μM, 50 μM or 1000 μM peptide, 24 hours) was “reduced”, the “level of reactive oxygen species increased by ultraviolet irradiation (Example 4-2)” value ([1]; keratinocytes (HaCaT), comparison experiment, FIG. 11) was “reduced” and the “expression of SIRT-1 reduced by ultraviolet irradiation” value (SIRT-1) was “increased or restored”.

— US20260199213A1, “PEPTIDE HAVING ACTIVITY OF IMPROVING STATE OF SKIN, AND USE THEREOF” (CAREGEN CO., LTD., priority 2022, published 2026)
